Data taken from US5622962A, “5α-reductase inhibitors” (priority 1995, dated 1997).
Read-outs that look alike come from different tables or passages of the source.

How the values were obtained:
[1] = target: T1, Type I 5α-Reductase from Human Scalp (Homo sapiens, UniProt P18405); experiment: Human Type I 5α-reductase assay (conversion of [3H]-testosterone to 5α-reduced metabolites); assay type: biochemical; settings: for percent inhibition of Type I AR: 0.3 μM
T1 construct: Scalp punch biopsies from graft recipient sites were obtained from human hair transplant procedures; from tissue; host or cells: human scalp punch biopsies (hair transplant graft recipient sites), homogenate, 100,000×g pellet
T1 sequence (P18405 1-259): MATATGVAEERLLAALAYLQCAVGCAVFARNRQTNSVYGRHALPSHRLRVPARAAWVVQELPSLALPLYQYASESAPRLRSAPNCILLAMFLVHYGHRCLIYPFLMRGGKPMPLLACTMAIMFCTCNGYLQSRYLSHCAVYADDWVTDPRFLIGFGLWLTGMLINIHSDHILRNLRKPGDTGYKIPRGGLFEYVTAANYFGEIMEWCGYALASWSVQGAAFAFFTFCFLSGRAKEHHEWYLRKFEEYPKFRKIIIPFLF

[2] = target: T2, Type II 5α-Reductase from Human Prostate (Homo sapiens, UniProt P31213); experiment: Human Type II 5α-reductase assay (conversion of [3H]-testosterone to 5α-reduced metabolites); assay type: biochemical; settings: for percent inhibition of Type II AR: 0.3 μM
T2 construct: The same procedure as above was used for preparations using tissue from prostate surgery; from tissue; host or cells: human prostate tissue from surgery, homogenate, 100,000×g pellet
T2 sequence (P31213 1-254): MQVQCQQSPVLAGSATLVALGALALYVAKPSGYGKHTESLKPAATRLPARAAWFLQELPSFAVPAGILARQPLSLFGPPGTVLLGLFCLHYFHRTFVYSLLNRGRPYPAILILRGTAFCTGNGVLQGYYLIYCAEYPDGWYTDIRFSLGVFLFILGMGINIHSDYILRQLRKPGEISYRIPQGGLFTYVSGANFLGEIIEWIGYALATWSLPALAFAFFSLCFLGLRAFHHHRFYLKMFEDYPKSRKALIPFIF

[3] = pH 7.5, 0.3 μM, 50 nM [3H]-testosterone, pH 7.5, 25°, 180 min, compared to control reaction mixtures, read-out: percent inhibition of Type I AR
[4] = pH 5.5, 0.3 μM, sodium acetate pH 5.5, 25°, 30 min, compared to control reaction mixtures, read-out: percent inhibition of Type II AR
[5] = pH 7.5, read-out: percent inhibition of Type I AR
[6] = pH 5.5, read-out: percent inhibition of Type II AR
[7] = sodium acetate pH 5.5, 25°, 30 min, compared to control reaction mixtures
[8] = 50 nM [3H]-testosterone, pH 7.5, 25°, 180 min, compared to control reaction mixtures

Structure (SMILES) | inhibition at 0.3 µM [1, 3] [%] | inhibition at 0.3 µM [2, 4] [%] | also measured
C[C@]12CCC(=O)N[C@@H]1CCc1cc(Sc3cccc(Cl)c3)ccc12 [Example 8, (+)-(4aR)-(10bR)-8-(3-chlorophenylthio)-10b-methyl-1,2,3,4,4a,5,6,10b-octahydrobenzo[f]quinolin-3-one] | 22 | 59 | –
CN1C(=O)CC[C@]2(C)c3ccc(/C=C/c4ccccc4)cc3CC[C@@H]12 [Example 279, (4aR)-(10bR)-4,10b-dimethyl-8-(2-phenylethenyl)-1,2,3,4,4a,5,6,10b-octahydrobenzo[f]quinolin-3-one] | – | – | inhibition at 0.3 µM [1, 5]: 85%; inhibition at 0.3 µM [2, 6]: 60%
CN1C(=O)CC[C@]2(C)c3ccc(-c4cccc(C(F)(F)F)c4)cc3CC[C@@H]12 [Example 80, (+)-(4aR)-(10bR)-4-methyl-8-(3-trifluoromethylphenyl)-10b-methyl-1,2,3,4,4a,5,6,10b-octahydrobenzo[f]quinolin-3-one] | 76 | 29 | –
CN1C(=O)CC[C@]2(C)c3ccc(-c4ccc(C(F)(F)F)cc4F)cc3CC[C@@H]12 [Example 210, (+)-(4aR)-(10bR)-4-methyl-8-(2-fluoro-4-trifluoromethylphenyl)-10b-methyl-1,2,3,4,4a,5,6,10b-octahydrobenzo[f]-quinolin-3-one] | – | – | inhibition at 0.3 µM [1, 5]: 81%; inhibition at 0.3 µM [2, 6]: 38%
CN1C(=O)CC[C@]2(C)c3ccc(Sc4ccc5cc(F)ccc5n4)cc3CC[C@@H]12 [Example 173, (+)-(4aR)-(10bR)-4-methyl-8-(6-fluoro-2-quinolinylthio)-10b-methyl-1,2,3,4,4a,5,6,10b-octahydrobenzo[f]quinolin-3-one] | 65 | 78 | percent inhibition of Type II AR [2, 7]: 77%
CC(C)c1cccc2sc(Sc3ccc4c(c3)CC[C@H]3N(C)C(=O)CC[C@]43C)nc12 [Example 157, (+)-(4aR)-(10bR)-4-methyl-8-(2-[4-isopropyl]benzothiazolylthio)-10b-methyl-1,2,3,4,4a,5,6,10b-octahydrobenzo[f]-quinolin-3-one] | 88 | 79 | –
Cc1ccc2ccccc2c1-c1ccc2c(c1)CC[C@H]1N(C)C(=O)CC[C@]21C [Example 72, (+)-(4aR)-(10bR)-4-methyl-8-(1-[2-methyl]naphthyl)-10b-methyl-1,2,3,4,4a,5,6,10b-octahydrobenzo[f]quinolin-3-one] | 16 | 26 | –
CN1C(=O)CC[C@]2(C)c3ccc(Sc4nc5c(ccc6ccccc65)s4)cc3CC[C@@H]12 [Example 163, (+)-(4aR)-(10bR)-4-methyl-8-(2-naphtho<1,2-d>-thiazolylthio)-10b-methyl-1,2,3,4,4a,5,6,10b-octahydrobenzo[f]-quinolin-3-one] | 80 | 86 | –
CN1C(=O)CC[C@]2(C)c3ccc(-c4ccc(Cl)c(C(F)(F)F)c4)cc3CC[C@@H]12 [Example 24, (+)-(4aR)-(10bR)-4-methyl-8-(4-chloro-3-trifluoromethylphenyl)-10b-methyl-1,2,3,4,4a,5,6,10b-octahydrobenzo[f]-quinolin-3-one] | 88 | 28 | –
CN1C(=O)CC[C@]2(C)c3ccc(-c4ccc([N+](=O)[O-])cc4)cc3CC[C@@H]12 [Example 119, (+)-(4aR)-(10bR)-4-methyl-8-(4-nitrophenyl)-10b-methyl-1,2,3,4,4a,5,6,10b-octahydrobenzo[f]quinolin-3-one] | 84 | – | –
CN1C(=O)CC[C@]2(C)c3ccc(-c4ccc(F)c(F)c4)cc3CC[C@@H]12 [Example 27, (+)-(4aR)-(10bR)-4-methyl-8-(3,4-difluorophenyl)-10b-methyl-1,2,3,4,4a,5,6,10b-octahydrobenzo[f]quinolin-3-one] | 92 | – | –
CN1C(=O)CC[C@]2(C)c3ccc(-c4cccc(F)c4F)cc3CC[C@@H]12 [Example 26, (+)-(4aR)-(10bR)-4-methyl-8-(2,3-difluorophenyl)-10b-methyl-1,2,3,4,4a,5,6,10b-octahydrobenzo[f]quinolin-3-one] | 86 | – | –
CN1C(=O)CC[C@]2(C)c3ccc(Sc4ccccc4Cl)cc3CC[C@@H]12 [Example 99, (+)-(4aR)-(10bR)-4,10b-dimethyl-8-(2-chlorophenylthio)-1,2,3,4,-4a,5,6,10b-octahydrobenzo[f]quinolin-3-one] | 88 | – | –
C[C@]12CCC(=O)N[C@@H]1CCc1cc(Sc3ccccc3)ccc12 [Example 22, (4aR)-(10bR)-8-phenylthio-10b-methyl-1,2,3,4,4a,5,6,10b-octahydrobenzo[f]quinolin-3-one] | – | 19 | –
CN1C(=O)CC[C@]2(C)c3ccc(-c4cccc(F)c4)cc3CC[C@@H]12 [Example 44, (+)-(4aR)-(10bR)-4-methyl-8-(3-fluorophenyl)-10b-methyl-1,2,3,4,4a,5,6,10b-octahydrobenzo[f]quinolin-3-one] | – | 27 | –
C[C@]12CCC(=O)N[C@@H]1CCc1cc(-c3cnc4ccccc4c3)ccc12 [Example 196, (+)-(4aR)-(10bR)-8-(3-quinolinyl)-10b-methyl-1,2,3,4,4a,-5,6,10b-octahydrobenzo[f]quinolin-3-one] | – | – | percent inhibition of Type I AR [1, 8]: 11%
CN(C)c1ccc(-c2ccc3c(c2)CC[C@H]2N(C)C(=O)CC[C@]32C)cc1 [Example 59, (+)-(4aR)-(10bR)-4-methyl-8-(4-dimethylaminophenyl)-10b-methyl-1,2,3,4,4a,5,6,10b-octahydrobenzo[f]quinolin-3-one] | – | 31 | –
CN1C(=O)CC[C@]2(C)c3ccc(-c4cccc(C=O)c4)cc3CC[C@@H]12 [Example 57, (+)-(4aR)-(10bR)-4-methyl-8-(3-formylphenyl)-10b-methyl-1,2,3,4,4a,5,6,10b-octahydrobenzo[f]quinolin-3-one] | – | 20 | –

Now from value to molecule, other results behind:

inhibition at 0.3 µM [1, 3] [%] | inhibition at 0.3 µM [2, 4] [%] | Structure (SMILES) | also measured
93 | 33 | CN1C(=O)CC[C@]2(C)c3ccc(-c4ccc([N+](=O)[O-])s4)cc3CC[C@@H]12 [Example 217, (+)-(4aR)-(10bR)-4-methyl-8-(5-nitro-2-thienyl)-10b-methyl-1,2,3,4,4a,5,6,10b-octahydrobenzo[f]quinolin-3-one] | –
59 | 72 | CN1C(=O)CC[C@]2(C)c3ccc(-c4cncc5ccccc45)cc3CC[C@@H]12 [Example 200, (+)-(4aR)-(10bR)-4-methyl-8-(4-isoquinolinyl)-10b-methyl-1,2,3,4,4a,5,6,10b-octahydrobenzo [f]quinolin-3-one] | percent inhibition of Type II AR [2, 7]: 64%
41 | 48 | CN1C(=O)CC[C@]2(C)c3ccc(-c4ccc([N+](=O)[O-])cn4)cc3CC[C@@H]12 [Example 202, (+)-(4aR)-(10bR)-4-methyl-8-(5-nitro-2-pyridinyl)-10b-methyl-1,2,3,4,4a,5,6,10b-octahydrobenzo[f]quinolin-3-one] | –
83 | 30 | CN1C(=O)CC[C@]2(C)c3ccc(-c4ccc5c6c(cccc46)C(=O)N(CCN4CCOCC4)C5=O)cc3CC[C@@H]12 [Example 234, (+)-(4aR)-(10bR)-4-methyl-8-(2-(2-[1-morpholino]ethyl)-1H-benzo<de>isoquinolin-6-yl-1,3-(2H)dione)-10b-methyl-1,2,3,4,4a,5,6,10b-octahydrobenzo[f]quinolin-3-one] | –
33 | 13 | CC(=O)N1CCc2cc(-c3ccc4c(c3)CC[C@H]3N(C)C(=O)CC[C@]43C)cc([N+](=O)[O-])c21 [Example 237, (+)-(4aR)-(10bR)-4-methyl-8-(1-acetyl-7-nitroindolin-5-yl)-10b-methyl-1,2,3,4,4a,5,6,10b-octahydrobenzo[f]quinolin-3-one] | –
97 | 32 | CN1C(=O)CC[C@]2(C)c3ccc(-c4cc(F)c(F)c(F)c4)cc3CC[C@@H]12 [Example 206, (+)-(4aR)-(10bR)-4-methyl-8-(3,4,5-trifluorophenyl)-10b-methyl-1,2,3,4,4a,5,6,10b-octahydrobenzo[f]quinolin-3-one] | percent inhibition of Type I AR [1, 8]: 100%
– | 7 | C[C@]12CCC(=O)N[C@@H]1CCc1cc(-c3nccs3)ccc12 [Example 198, (+)-(4aR)-(10bR)-8-(2-thiazolyl)-10b-methyl-1,2,3,4,4a,-5,6,10b-octahydrobenzo[f]quinolin-3-one] | –
– | 36 | CN1C(=O)CC[C@]2(C)c3ccc(NC(=O)c4ccc(N)cc4)cc3CC[C@@H]12 [Example 271, (4aR)-(10bR)-4,10b-dimethyl-8-(4-aminobenzoylamino)-1,2,3,4,4a,5,6,10b-octahydrobenzo[f]quinolin-3-one] | –
